The source of these data is US20260308186A1, “STAT DEGRADERS AND USES THEREOF” (Recludix Pharma, Inc., priority 2023, published 2026).

One experiment addresses T1, STAT6 (Homo sapiens, UniProt P42226).
T1 construct: Recombinant STAT6 protein (STAT6(W123-T658))
T1 sequence (P42226 123-658): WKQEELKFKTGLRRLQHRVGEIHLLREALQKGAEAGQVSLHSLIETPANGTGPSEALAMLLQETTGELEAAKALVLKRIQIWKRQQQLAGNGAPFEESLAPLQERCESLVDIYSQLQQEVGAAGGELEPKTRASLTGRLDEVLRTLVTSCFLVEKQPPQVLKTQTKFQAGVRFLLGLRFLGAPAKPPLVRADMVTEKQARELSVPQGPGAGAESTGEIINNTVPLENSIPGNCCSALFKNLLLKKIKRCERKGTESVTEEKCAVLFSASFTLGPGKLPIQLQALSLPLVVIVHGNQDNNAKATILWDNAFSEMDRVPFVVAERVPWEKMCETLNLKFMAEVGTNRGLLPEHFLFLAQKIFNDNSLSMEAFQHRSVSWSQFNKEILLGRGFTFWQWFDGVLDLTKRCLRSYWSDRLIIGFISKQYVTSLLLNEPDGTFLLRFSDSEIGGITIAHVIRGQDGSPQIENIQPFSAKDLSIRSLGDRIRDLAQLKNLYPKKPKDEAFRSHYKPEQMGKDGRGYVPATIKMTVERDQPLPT
Kind of experiment: STAT6 Fluorescence Polarization (FP) Assay. Format: binding. Put shortly:
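STAT6(W123-T658) at 250 nM plus 2 nM 5-FAM phosphotyrosine peptide probe in HEPES pH 7.4 buffer with 2 mM DTT, 1% DMSO final. Polarization read after 45 min at room temperature. IC50 from nonlinear regression of mP against log concentration.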

The target in the next experiment is T2, STAT3 (Homo sapiens, UniProt P40763).
T2 construct: Recombinant STAT3 protein (STAT3(G127-1722))
T2 sequence (P40763 127-722 limits assumed): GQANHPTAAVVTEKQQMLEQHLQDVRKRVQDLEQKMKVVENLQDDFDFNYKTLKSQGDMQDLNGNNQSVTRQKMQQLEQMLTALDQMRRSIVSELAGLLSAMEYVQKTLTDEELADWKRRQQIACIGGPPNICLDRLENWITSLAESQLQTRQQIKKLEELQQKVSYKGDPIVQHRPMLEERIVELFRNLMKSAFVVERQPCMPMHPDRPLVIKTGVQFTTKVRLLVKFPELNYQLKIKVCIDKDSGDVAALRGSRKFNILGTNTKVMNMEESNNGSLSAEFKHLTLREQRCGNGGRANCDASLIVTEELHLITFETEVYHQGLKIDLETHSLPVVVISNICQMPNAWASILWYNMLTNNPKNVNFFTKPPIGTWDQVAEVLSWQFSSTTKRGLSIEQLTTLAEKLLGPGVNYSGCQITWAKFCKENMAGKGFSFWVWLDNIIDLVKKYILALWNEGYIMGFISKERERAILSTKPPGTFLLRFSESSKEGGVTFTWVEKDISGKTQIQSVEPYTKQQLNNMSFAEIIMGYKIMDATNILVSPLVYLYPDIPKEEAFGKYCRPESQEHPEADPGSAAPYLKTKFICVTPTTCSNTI
Briefly: STAT3 Fluorescence Polarization (FP) Assay. The class given is binding. A general note: Polarisation of emitted light reports the rotation of a fluorescent probe.

The target of a further experiment is T3, pSTAT3 (Homo sapiens, UniProt P40763).
T3 construct: pY705-STAT3 MSD read-out
T3 sequence (P40763 whole entry): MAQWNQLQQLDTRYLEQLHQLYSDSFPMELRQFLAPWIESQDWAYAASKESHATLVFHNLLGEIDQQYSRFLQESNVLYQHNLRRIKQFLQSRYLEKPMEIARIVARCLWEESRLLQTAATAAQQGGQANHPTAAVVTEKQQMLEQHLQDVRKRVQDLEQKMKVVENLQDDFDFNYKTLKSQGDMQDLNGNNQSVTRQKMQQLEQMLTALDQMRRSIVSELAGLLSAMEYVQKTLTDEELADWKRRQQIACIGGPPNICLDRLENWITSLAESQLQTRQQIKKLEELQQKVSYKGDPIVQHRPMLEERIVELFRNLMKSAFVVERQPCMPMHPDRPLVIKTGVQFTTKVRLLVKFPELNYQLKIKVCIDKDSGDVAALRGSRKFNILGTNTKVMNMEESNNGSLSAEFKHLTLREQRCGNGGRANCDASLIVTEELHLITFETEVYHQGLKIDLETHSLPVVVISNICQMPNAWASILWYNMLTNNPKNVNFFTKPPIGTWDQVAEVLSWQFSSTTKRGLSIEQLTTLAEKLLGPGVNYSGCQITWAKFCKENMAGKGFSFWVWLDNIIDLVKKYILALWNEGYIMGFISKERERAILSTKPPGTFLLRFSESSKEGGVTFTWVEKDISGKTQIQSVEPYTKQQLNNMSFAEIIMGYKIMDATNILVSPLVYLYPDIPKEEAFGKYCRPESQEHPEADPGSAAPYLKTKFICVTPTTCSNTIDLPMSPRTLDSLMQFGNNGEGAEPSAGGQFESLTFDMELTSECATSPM
Briefly: MSD-pSTAT-PBMC Assay, pSTAT3 (IL-6 stimulated PBMC). The class given is cell-based. An excerpt:
Cryopreserved Peripheral Blood Mononuclear Cells (PBMC) are from AllCells. Recombinant Human IL-4 and IL-6 are from Peprotech. Mouse monoclonal anti-STAT3 antibody, rabbit monoclonal anti-pY705-STAT3 antibody, rabbit monoclonal Anti-pY641-STAT6 antibody, and lysis buffer are from Cell Signaling Technology (CST). Mouse monoclonal anti-STAT6 antibody is from BioLegend. Assay plates, blocker, and anti-rabbit secondary antibody are from Meso Scale Discovery (MSD).
Cryopreserved PBMCs were thawed out and allowed to recover overnight in IMDM+10% heat-inactivated FBS prior to plating 50,000 (STAT3) or 25,000 (STAT6) cells per well in 96-well U-bottom tissue culture plates. Cells were treated with compound for 3 hrs. then stimulated with 10 ng/mL IL-6 (STAT3) or 1 ng/mL IL-4 (STAT6) for 10 min. Cells were then spun down and washed with ice-cold PBS prior to lysing the cell pellet with 1× lysis buffer (CST) with 1×HALT protease and phosphatase inhibitor cocktail (Thermo). Lysates were transferred to and incubated overnight at 4° C. with shaking in QuickPlex 96-well high bind assay plates (MSD) pre-coated overnight with 30 μL per well of 0.6 μg/mL mouse monoclonal anti-STAT3 antibody (STAT3) or 2 μg/mL mouse monoclonal anti-STAT6 antibody (STAT6) in 1×PBS, and pre-blocked for 1 hour with 3% Blocker-A (MSD). Captured protein in the assay plates were then washed and probed with 25 μL per well of 0.25 μg/ml rabbit monoclonal anti-pY705-STAT3 antibody (STAT3) or 0.18 μg/ml rabbit monoclonal Anti-pY641-STAT6 antibody (STAT6) in 1% Blocker-A for 1 hour at room temperature with shaking, then washed and probed with 25 ul per well of 1 ug/ml Sulfo-TAG Labeled Goat Anti-Rabbit Antibody (MSD) in 1% Blocker-A for 1 hour at room temperature with shaking. Assay plates were then washed and 150 μL of 1× Read Buffer-T (MSD) was added to each well prior to reading on an SQ120 MSD Plate Reader. Assay signal from each sample was subtracted by the signal from unstimulated control wells and normalized to DMSO control wells. IC50 values were calculated using Graph Pad Prism Dose-Response Nonlinear Regression with variable slope. For both pSTAT3 and pSTAT6 A=≤100 nM; B=>100-1000 nM; C=>1000-3000 nM; and D=>3 μM.

The target of another experiment is T4, pSTAT6 (Homo sapiens, UniProt P42226).
T4 construct: pY641-STAT6 MSD read-out
T4 sequence (P42226 1-847): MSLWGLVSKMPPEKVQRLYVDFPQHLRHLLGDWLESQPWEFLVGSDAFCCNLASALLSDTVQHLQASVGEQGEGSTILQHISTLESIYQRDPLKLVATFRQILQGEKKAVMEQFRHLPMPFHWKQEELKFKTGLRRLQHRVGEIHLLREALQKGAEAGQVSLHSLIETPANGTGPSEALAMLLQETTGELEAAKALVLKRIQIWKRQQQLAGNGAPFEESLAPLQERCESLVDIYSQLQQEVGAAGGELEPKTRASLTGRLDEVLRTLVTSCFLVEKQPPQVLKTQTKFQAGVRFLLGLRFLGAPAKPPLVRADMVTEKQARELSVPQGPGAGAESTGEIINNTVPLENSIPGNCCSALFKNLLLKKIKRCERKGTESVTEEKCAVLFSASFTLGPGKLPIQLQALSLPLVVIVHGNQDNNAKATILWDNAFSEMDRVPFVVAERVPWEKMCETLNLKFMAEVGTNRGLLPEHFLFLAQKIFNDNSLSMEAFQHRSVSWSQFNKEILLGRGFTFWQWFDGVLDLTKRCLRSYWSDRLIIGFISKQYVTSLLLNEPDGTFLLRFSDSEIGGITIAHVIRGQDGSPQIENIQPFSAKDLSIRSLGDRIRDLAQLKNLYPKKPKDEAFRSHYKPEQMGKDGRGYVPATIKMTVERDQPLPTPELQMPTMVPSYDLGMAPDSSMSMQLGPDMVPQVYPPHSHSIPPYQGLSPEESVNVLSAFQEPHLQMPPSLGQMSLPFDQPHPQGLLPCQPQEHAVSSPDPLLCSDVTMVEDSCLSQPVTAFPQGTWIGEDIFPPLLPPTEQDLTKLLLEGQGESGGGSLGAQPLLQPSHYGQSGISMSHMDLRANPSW
Kind of experiment: MSD-pSTAT-PBMC Assay, pSTAT6 (IL-4 stimulated PBMC). Format: cell-based. Put shortly:
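Human PBMC were recovered overnight, treated 3 h with compound, then stimulated for 10 min with 10 ng/mL IL-6 (pSTAT3) or 1 ng/mL IL-4 (pSTAT6). Lysates were read by MSD sandwich immunoassay, with total STAT capture and pY705-STAT3 or pY641-STAT6 detection. Signal minus unstimulated wells was normalized to DMSO, and IC50 came from a variable-slope fit.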

[1] abbreviates: read-out: pSTAT3 IC50, compound 3 hrs, then 10 ng/mL IL-6 for 10 min, pY705-STAT3.
The mark [2] stands for this setting: read-out: pSTAT6 IC50, compound 3 hrs, then 1 ng/mL IL-4 for 10 min, pY641-STAT6.
Where [3] appears, read: recombinant STAT6(W123-T658) 250 nM, probe 5-FAM-Ap[…]-NH2 2 nM, 45 min, room temperature, read-out: STAT6 FP IC50.
Where [4] appears, read: recombinant STAT3 25 nM, probe 5-FAM-GpYLPQTV-NH2 2 nM, 45 min, room temperature, read-out: STAT3 FP IC50.
The mark [5] stands for this setting: compound 3 hrs, then 10 ng/mL IL-6 for 10 min, pY705-STAT3, read-out: pSTAT3 IC50.
The mark [6] stands for this setting: compound 3 hrs, then 1 ng/mL IL-4 for 10 min, pY641-STAT6, read-out: pSTAT6 IC50.

Like-named read-outs stand apart in the source and are kept apart here.

Consider `Cc1ccc2[nH]nc(C(=O)N3CC[C@H]4CC[C@@H](C(=O)NCCCCCCCCC(=O)N[C@H](C(=O)N5C[C@H](O)C[C@H]5C(=O)N[C@@H](C)c5ccc(-c6scnc6C)cc5)C(C)(C)C)N4C(=O)[C@@H](NC(=O)c4ccc5ccc(C(F)(F)P(=O)(O)O)cc5c4)C3)c2c1` [Compound 7], for which the IC50 against STAT6 is below 0.3 µM; at STAT3, 1 to 10 µM; at pSTAT3 (setting [1]), above 3 µM; on pSTAT6 (setting [2]), above 3 µM.

As for `N#CC1CN(C(=O)C2CCC3CCN(C(=O)CCCCCC#Cc4cccc5c4CN(C4CCC(=O)NC4=O)C5=O)CC(NC(=O)c4cc5cc(C(F)(F)P(=O)(O)O)ccc5s4)C(=O)N32)CC1c1ccccc1` [Compound 6, ((2-(((5S,8S,10aR)-8-((rel-3S,4R)-3-cyano-4-phenylpyrrolidine-1-carbonyl)-3-(8-(2-(2,6-dioxopiperidin-3-yl)-1-oxoisoindolin-4-yl)oct-7-ynoyl)-6-oxodecahydropyrrolo[1,2-a][1,5]diazocin-5-yl)carbamoyl)benzo[b]thiophen-5-yl)difluoromethyl)phosphonic acid], the IC50 at STAT6 (setting [3]) is below 0.3 µM; at STAT3 (setting [4]), 1 to 10 µM; at pSTAT3 (setting [5]) it was above 3 µM; on pSTAT6 (setting [6]) it was 1 to 3 µM.

Regarding `O=C1CCC(N2Cc3c(C#CCCCCCC(=O)N4CC[C@H]5CC[C@@H](C(=O)N6CC(c7cccnc7)C6)N5C(=O)[C@@H](NC(=O)c5cc6cc(C(F)(F)P(=O)(O)O)ccc6s5)C4)cccc3C2=O)C(=O)N1` (stereo partly drawn) [Compound 5, ((2-(((5S,8S,10aR)-3-(8-(2-(2,6-dioxopiperidin-3-yl)-1-oxoisoindolin-4-yl)oct-7-ynoyl)-6-oxo-8-(3-(pyridin-3-yl)azetidine-1-carbonyl)decahydropyrrolo[1,2-a][1,5]diazocin-5-yl)carbamoyl)benzo[b]thiophen-5-yl)difluoromethyl)phosphonic acid], the IC50 at STAT6 (setting [3]) is 3 to 30 µM; on STAT3 (setting [4]), below 0.1 µM; at pSTAT3 (setting [5]), above 3 µM; at pSTAT6 (setting [6]), above 3 µM.

As to `Cc1ccc2[nH]nc(C(=O)N3CC[C@H]4CC[C@@H](C(=O)NCCCCCCC#Cc5cccc6c5CN(C5CCC(=O)NC5=O)C6=O)N4C(=O)[C@@H](NC(=O)c4ccc5ccc(C(F)(F)P(=O)(O)O)cc5c4)C3)c2c1` (stereo partly drawn) [Compound 9, ((7-(((5S,8S,10aR)-8-((8-(2-(2,6-dioxopiperidin-3-yl)-1-oxoisoindolin-4-yl)oct-7-yn-1-yl)carbamoyl)-3-(5-methyl-1H-indazole-3-carbonyl)-6-oxodecahydropyrrolo[1,2-a][1,5]diazocin-5-yl)carbamoyl)naphthalen-2-yl)difluoromethyl)phosphonic acid], the IC50 against STAT6 was below 0.3 µM; on STAT3, 1 to 10 µM; at pSTAT3 (setting [1]) it was above 3 µM; at pSTAT6 (setting [2]) it was 1 to 3 µM.

`CN(C(=O)[C@@H]1CC[C@@H]2CCN(C(=O)CCCCCC#Cc3cccc4c3CN(C3CCC(=O)NC3=O)C4=O)C[C@H](NC(=O)c3cc4cc(C(F)(F)P(=O)(O)O)ccc4[nH]3)C(=O)N21)c1ccccc1` (stereo partly drawn) [Compound 1, [(2-{[(5S,8S,10aR)-3-{8-[2-(2,6-dioxopiperidin-3-yl)-1-oxo-2,3-dihydro-1H-isoindol-4-yl]oct-7-ynoyl}-8-[methyl(phenyl)carbamoyl]-6-oxo-decahydropyrrolo[1,2-a][1,5]diazocin-5-yl]carbamoyl}-1H-indol-5-yl)difluoromethyl]phosphonic acid]: the IC50 is 0.3 to 3 µM on STAT6, 1 to 10 µM against STAT3, above 3 µM at pSTAT3 (setting [1]) and above 3 µM at pSTAT6 (setting [2]).

In the case of `CN(C)c1ccncc1C1CN(C(=O)[C@@H]2CC[C@@H]3CCN(C(=O)CCCCCC#Cc4cccc5c4CN(C4CCC(=O)NC4=O)C5=O)C[C@H](NC(=O)c4cc5cc(C(F)(F)P(=O)(O)O)ccc5s4)C(=O)N32)C1` (stereo partly drawn) [Compound 39, ((2-(((5S,8S,10aR)-8-(3-(4-(dimethylamino)pyridin-3-yl)azetidine-1-carbonyl)-3-(8-(2-(2,6-dioxopiperidin-3-yl)-1-oxoisoindolin-4-yl)oct-7-ynoyl)-6-oxodecahydropyrrolo[1,2-a][1,5]diazocin-5-yl)carbamoyl)benzo[b]thiophen-5-yl)difluoromethyl)phosphonic acid], the IC50 on STAT6 (setting [3]) is 3 to 30 µM; at STAT3 (setting [4]), below 0.1 µM; at pSTAT3 (setting [5]), 0.1 to 1 µM.

On to `CC(=O)N1CC[C@H]2CC[C@@H](C(=O)Nc3ccc(-c4ccc(NC(=O)CCCCCC#Cc5cccc6c5CN(C5CCC(=O)NC5=O)C6=O)cc4)cc3)N2C(=O)[C@@H](NC(=O)c2cc3cc(C(F)(F)P(=O)(O)O)ccc3[nH]2)C1` (stereo partly drawn) [Compound 3, ((2-(((5S,8S,10aR)-3-acetyl-8-((4′-(8-(2-(2,6-dioxopiperidin-3-yl)-1-oxoisoindolin-4-yl)oct-7-ynamido)-[1,1′-biphenyl]-4-yl)carbamoyl)-6-oxodecahydropyrrolo[1,2-a][1,5]diazocin-5-yl)carbamoyl)-1H-indol-5-yl)difluoromethyl)phosphonic acid], for which the IC50 against STAT6 was 0.3 to 3 µM; at STAT3 it was 0.1 to 1 µM; at pSTAT3 (setting [1]), above 3 µM; on pSTAT6 (setting [2]), above 3 µM.
